Measurements as given in US10219516B2, “Molecules having pesticidal utility, and intermediates, compositions, and processes, related thereto” (priority 2015, dated 2019).

How the values were obtained:
Type in all cases: in vivo
[1] = system: Yellow Fever Mosquito (Aedes aegypti, AEDSAE); assay: Bioassay on Yellow Fever Mosquito (YFM), 96-well plate larval assay; details: Yellow Fever Mosquito, 96-well plate larval assay
In short: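 Aedes aegypti larvae (about 1 day old) in liver-powder water were added to plates dispensed from DMSO master plates (4000 ppm stock) diluted with 90:10 water/acetone; six replicate plates per master. Lidded plates were held at room temperature for 3 days, then each well was scored for mortality.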

[2] = system: Beet Armyworm (Spodoptera exigua, LAPHEG); assay: Bioassay on Beet Armyworm (BAW), 128-well diet tray assay; details: Beet Armyworm, 128-well diet tray assay, read-out: BAW rating
In short: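 Second-instar larvae, one to five per well, placed on artificial diet surface-treated with 50 μg/cm^2 compound applied in 90:10 acetone-water and dried. Held 5–7 days at 25° C., 14:10 light-dark. Percent mortality recorded per well and averaged over eight wells.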

[3] = system: Cabbage Looper (Trichoplusia ni, TRIPNI); assay: Bioassay on Cabbage Looper (CL), 128-well diet tray assay; details: Trichoplusia ni; Cabbage Looper, 128-well diet tray assay; read-out: CL rating
In short: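 Mortality of second instar larvae exposed to diet coated with 50 μg/cm^2 compound (acetone-water 90:10 vehicle, dried); 25° C., 5–7 days.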

SMILES | YFM rating [1] | pest or weed control at 50 µg/cm2 [2] | pest or weed control at 50 µg/cm2 [3]
O=C(Nc1ncc(F)cc1F)c1cc(NC(=O)[C@H]2[C@H](c3ccc(C(F)F)c(Cl)c3)C2(Cl)Cl)ccc1Cl (relative stereo) [F588, 2-Chloro-5-(trans-2,2-dichloro-3-(3-chloro-4-(difluoromethyl)phenyl)cyclopropane-1-carboxamido)-N-(3,5-difluoropyridin-2-yl)benzamide] | A (80-100) | 50 to 100% | 50 to 100%
O=C(Nc1ncc(F)cc1F)c1cc(NC(=O)[C@H]2[C@H](c3ccc(C(F)F)c(F)c3)C2(Cl)Cl)ccc1Cl (relative stereo) [F589, 2-chloro-5-(trans-2,2-dichloro-3-(4-(difluoromethyl)-3-fluorophenyl)cyclopropane-1-carboxamido)-N-(3,5-difluoropyridin-2-yl)benzamide] | A (80-100) | 50 to 100% | 50 to 100%
O=C(Nc1ncc(F)cc1F)c1cc(NC(=O)[C@H]2[C@H](c3cccc(C(F)F)c3)C2(Cl)Cl)ccc1Cl (relative stereo) [F590, 2-Chloro-5-(trans-2,2-dichloro-3-(3-(difluoromethyl)phenyl)cyclopropane-1-carboxamido)-N-(3,5-difluoropyridin-2-yl)benzamide] | A (80-100) | 50 to 100% | 50 to 100%
O=C(Nc1ncc(F)cc1F)c1cc(NC(=O)[C@H]2[C@H](c3ccc(C(F)F)cc3)C2(Cl)Cl)ccc1Cl (relative stereo) [F591, 2-Chloro-5-(trans-2,2-dichloro-3-(4-(difluoromethyl)phenyl)cyclopropane-1-carboxamido)-N-(3,5-difluoropyridin-2-yl)benzamide] | A (80-100) | 50 to 100% | 50 to 100%
CN(C(=O)c1cc(NC(=O)[C@H]2[C@H](c3cc(Cl)cc(C(F)F)c3)C2(Cl)Cl)ccc1Cl)c1ccc(F)cc1 (relative stereo) [F592, 2-Chloro-5-(trans-2,2-dichloro-3-(3-chloro-5-(difluoromethyl)phenyl)cyclopropane-1-carboxamido)-N-(4-fluorophenyl)-N-methylbenzamide] | A (80-100) | 50 to 100% | 50 to 100%
CN(C(=O)c1cc(NC(=O)[C@H]2[C@H](c3ccc(Cl)c(C(F)F)c3)C2(Cl)Cl)ccc1Cl)c1ccc(F)cc1 (relative stereo) [F593, 2-Chloro-5-(trans-2,2-dichloro-3-(4-chloro-3-(difluoromethyl)phenyl)cyclopropane-1-carboxamido)-N-(4-fluorophenyl)-N-methylbenzamide] | A (80-100) | 50 to 100% | 50 to 100%
CN(C(=O)c1cc(NC(=O)[C@H]2[C@H](c3cc(F)cc(C(F)F)c3)C2(Cl)Cl)ccc1Cl)c1ccc(F)cc1 (relative stereo) [F594, 2-Chloro-5-(trans-2,2-dichloro-3-(3-(difluoromethyl)-5-fluorophenyl)cyclopropane-1-carboxamido)-N-(4-fluorophenyl)-N-methylbenzamide] | A (80-100) | 50 to 100% | 50 to 100%
CN(C(=O)c1cc(NC(=O)[C@H]2[C@H](c3ccc(F)c(C(F)F)c3)C2(Cl)Cl)ccc1Cl)c1ccc(F)cc1 (relative stereo) [F595, 2-Chloro-5-(trans-2,2-dichloro-3-(3-(difluoromethyl)-4-fluorophenyl)cyclopropane-1-carboxamido)-N-(4-fluorophenyl)-N-methylbenzamide] | A (80-100) | 50 to 100% | 50 to 100%
